Reference: patent US20250154554A1, “ANTIMICROBIAL SUSCEPTIBILITY” (priority 2022, published 2025)

test system: Gram-positive bacteria (Staphylococcus spp, Enterococcus spp); test: Reference method (RM): disk diffusion and/or broth microdilution, S/I/R classification, Gram-positive strains; assay type: cell-based; conditions: CLSI; FASTinov, Porto; spiked blood cultures;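 also: susceptibility categories assigned with the latest EUCAST breakpoint tables or CLSI M100 29th edition breakpoints, with quality control of the reference methods following EUCAST and CLSI guidance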
Experimental: For Colistin (on gram-negative bacteria) and vancomycin (in the case of Staphylococcus), the method used to determine the antimicrobial susceptibility was broth microdilution [5]. […] Standard methodologies were performed from the same inoculum used to spike the blood cultures. Quality control of the reference methods was also performed according to the recommendations of EUCAST and CLSI.
All the strains were classified as S, I or R according the reference methods. MIC was determined for vancomycin and colistin. The presence of ESBL on Enterobacterales group I, together with the screening for ESBL on Enterobacterales group II, and the screening for AmpC and presence of carbapenemases according EUCAST protocol for detection of mechanisms of resistance were also performed.
Positive blood cultures were spiked in blood agar and colonies identified and submitted to antimicrobial susceptibility assay according reference disk diffusion method and/or to MIC values determined by microdilution. The results were analysed using the most recent EUCAST breakpoint tables and the M100 (29th ed.) breakpoint tables from CLSI.

Compared with `CC(=O)NC[C@H]1CN(c2ccc(N3CCOCC3)c(F)c2)C(=O)O1` [Linezolid], `Cc1onc(-c2ccccc2)c1C(=O)N[C@@H]1C(=O)N2[C@@H]1SC(C)(C)[C@@H]2C(=O)O` [Oxacillin] is higher in “RM R (strains resistant by reference method)” value: 3 for the first, 19 for the second.

For Gentamicin [Gentamicin high level], the “RM R (strains resistant by reference method)” value was 12.

Compared with `CC(=O)NC[C@H]1CN(c2ccc(N3CCOCC3)c(F)c2)C(=O)O1` [Linezolid], `Cc1onc(-c2ccccc2)c1C(=O)N[C@@H]1C(=O)N2[C@@H]1SC(C)(C)[C@@H]2C(=O)O` [Oxacillin] is lower in “RM S (strains susceptible by reference method)” value: 128 for the first, 4 for the second.

In the case of Gentamicin [Gentamicin high level], the “RM S (strains susceptible by reference method)” value is reported as 35.

same assay, conditions: CLSI; total of 3 sites; blood cultures

First: CC(=O)NC[C@H]1CN(c2ccc(N3CCOCC3)c(F)c2)C(=O)O1 [Linezolid]
Second: Cc1onc(-c2ccccc2)c1C(=O)N[C@@H]1C(=O)N2[C@@H]1SC(C)(C)[C@@H]2C(=O)O [Oxacillin]
The “RM R (strains resistant by reference method)” value of the first is lower: 5 for the first, 74 for the second.

In the case of Gentamicin [Gentamicin high level], the “RM R (strains resistant by reference method)” value is reported as 15.

Going from `CC(=O)NC[C@H]1CN(c2ccc(N3CCOCC3)c(F)c2)C(=O)O1` [Linezolid] to `Cc1onc(-c2ccccc2)c1C(=O)N[C@@H]1C(=O)N2[C@@H]1SC(C)(C)[C@@H]2C(=O)O` [Oxacillin], the “RM S (strains susceptible by reference method)” value falls from 298 to 14.

Gentamicin [Gentamicin high level] was tested, and the “RM S (strains susceptible by reference method)” value was 51.

same assay, conditions: EUCAST; FASTinov, Porto; spiked blood cultures

Going from `CC(=O)NC[C@H]1CN(c2ccc(N3CCOCC3)c(F)c2)C(=O)O1` [Linezolid] to `Cc1onc(-c2ccccc2)c1C(=O)N[C@@H]1C(=O)N2[C@@H]1SC(C)(C)[C@@H]2C(=O)O` [Oxacillin], the “RM R (strains resistant by reference method)” value rises from 3 to 19.

With Gentamicin [Gentamicin high level] the “RM R (strains resistant by reference method)” value was 12.

Compared with `CC(=O)NC[C@H]1CN(c2ccc(N3CCOCC3)c(F)c2)C(=O)O1` [Linezolid], `Cc1onc(-c2ccccc2)c1C(=O)N[C@@H]1C(=O)N2[C@@H]1SC(C)(C)[C@@H]2C(=O)O` [Oxacillin] is lower in “RM S (strains susceptible by reference method)” value: 128 for the first, 4 for the second.

Gentamicin [Gentamicin high level] was tested, and the “RM S (strains susceptible by reference method)” value was 35.

same assay, conditions: EUCAST; total of 3 sites; blood cultures

Going from `CC(=O)NC[C@H]1CN(c2ccc(N3CCOCC3)c(F)c2)C(=O)O1` [Linezolid] to `Cc1onc(-c2ccccc2)c1C(=O)N[C@@H]1C(=O)N2[C@@H]1SC(C)(C)[C@@H]2C(=O)O` [Oxacillin], the “RM R (strains resistant by reference method)” value rises from 5 to 74.

With Gentamicin [Gentamicin high level] the “RM R (strains resistant by reference method)” value was 15.

Going from `CC(=O)NC[C@H]1CN(c2ccc(N3CCOCC3)c(F)c2)C(=O)O1` [Linezolid] to `Cc1onc(-c2ccccc2)c1C(=O)N[C@@H]1C(=O)N2[C@@H]1SC(C)(C)[C@@H]2C(=O)O` [Oxacillin], the “RM S (strains susceptible by reference method)” value falls from 298 to 14.

For Gentamicin [Gentamicin high level], the “RM S (strains susceptible by reference method)” value was 51.

same assay, conditions: number of strains resistant; CLSI; Hospital Ramon et Cajal, Madrid; patients blood cultures

First: Cc1onc(-c2ccccc2)c1C(=O)N[C@@H]1C(=O)N2[C@@H]1SC(C)(C)[C@@H]2C(=O)O [Oxacillin]
Second: Gentamicin [Gentamicin high level]
The “CLSI RM R” value of the first is higher: 19 for the first, 2 for the second.

same assay, conditions: number of strains resistant; CLSI; Hospital S. João, Porto; patients' blood cultures

Going from `CC(=O)NC[C@H]1CN(c2ccc(N3CCOCC3)c(F)c2)C(=O)O1` [Linezolid] to `Cc1onc(-c2ccccc2)c1C(=O)N[C@@H]1C(=O)N2[C@@H]1SC(C)(C)[C@@H]2C(=O)O` [Oxacillin], the “CLSI RM R” value rises from 2 to 36.

Gentamicin [Gentamicin high level] was tested, and the “CLSI RM R” value was 1.

same assay, conditions: number of strains resistant; EUCAST; Hospital Ramon et Cajal, Madrid; patients blood cultures

First: Cc1onc(-c2ccccc2)c1C(=O)N[C@@H]1C(=O)N2[C@@H]1SC(C)(C)[C@@H]2C(=O)O [Oxacillin]
Second: Gentamicin [Gentamicin high level]
The “EUCAST RM R” value of the first is higher: 19 for the first, 2 for the second.

same assay, conditions: number of strains resistant; EUCAST; Hospital S. João, Porto; patients' blood cultures

Compared with `CC(=O)NC[C@H]1CN(c2ccc(N3CCOCC3)c(F)c2)C(=O)O1` [Linezolid], `Cc1onc(-c2ccccc2)c1C(=O)N[C@@H]1C(=O)N2[C@@H]1SC(C)(C)[C@@H]2C(=O)O` [Oxacillin] is higher in “EUCAST RM R” value: 2 for the first, 36 for the second.

With Gentamicin [Gentamicin high level] the “EUCAST RM R” value was 1.

same assay, conditions: number of strains susceptible; CLSI; Hospital Ramon et Cajal, Madrid; patients blood cultures

Compared with `CC(=O)NC[C@H]1CN(c2ccc(N3CCOCC3)c(F)c2)C(=O)O1` [Linezolid], `Cc1onc(-c2ccccc2)c1C(=O)N[C@@H]1C(=O)N2[C@@H]1SC(C)(C)[C@@H]2C(=O)O` [Oxacillin] is lower in “CLSI RM S” value: 68 for the first, 5 for the second.

In the case of Gentamicin [Gentamicin high level], the “CLSI RM S” value is reported as 10.

same assay, conditions: number of strains susceptible; CLSI; Hospital S. João, Porto; patients' blood cultures

First: CC(=O)NC[C@H]1CN(c2ccc(N3CCOCC3)c(F)c2)C(=O)O1 [Linezolid]
Second: Cc1onc(-c2ccccc2)c1C(=O)N[C@@H]1C(=O)N2[C@@H]1SC(C)(C)[C@@H]2C(=O)O [Oxacillin]
The “CLSI RM S” value of the first is higher: 102 for the first, 5 for the second.

Gentamicin [Gentamicin high level] was tested, and the “CLSI RM S” value was 6.

same assay, conditions: number of strains susceptible; EUCAST; Hospital Ramon et Cajal, Madrid; patients blood cultures

Compared with `CC(=O)NC[C@H]1CN(c2ccc(N3CCOCC3)c(F)c2)C(=O)O1` [Linezolid], `Cc1onc(-c2ccccc2)c1C(=O)N[C@@H]1C(=O)N2[C@@H]1SC(C)(C)[C@@H]2C(=O)O` [Oxacillin] is lower in “EUCAST RM S” value: 68 for the first, 5 for the second.

For Gentamicin [Gentamicin high level], the “EUCAST RM S” value was 10.

same assay, conditions: number of strains susceptible; EUCAST; Hospital S. João, Porto; patients' blood cultures

Going from `CC(=O)NC[C@H]1CN(c2ccc(N3CCOCC3)c(F)c2)C(=O)O1` [Linezolid] to `Cc1onc(-c2ccccc2)c1C(=O)N[C@@H]1C(=O)N2[C@@H]1SC(C)(C)[C@@H]2C(=O)O` [Oxacillin], the “EUCAST RM S” value falls from 102 to 5.

For Gentamicin [Gentamicin high level], the “EUCAST RM S” value was 6.
